Structures are written as SMILES. pIC50, pKi: −log10 of the molar value.

The test has as its target T1, trehalase (Sigma No. T 8778) (Sus scrofa, UniProt I3LIR5).
T1 construct: purchased Sigma T 8778
T1 sequence (I3LIR5 24-583): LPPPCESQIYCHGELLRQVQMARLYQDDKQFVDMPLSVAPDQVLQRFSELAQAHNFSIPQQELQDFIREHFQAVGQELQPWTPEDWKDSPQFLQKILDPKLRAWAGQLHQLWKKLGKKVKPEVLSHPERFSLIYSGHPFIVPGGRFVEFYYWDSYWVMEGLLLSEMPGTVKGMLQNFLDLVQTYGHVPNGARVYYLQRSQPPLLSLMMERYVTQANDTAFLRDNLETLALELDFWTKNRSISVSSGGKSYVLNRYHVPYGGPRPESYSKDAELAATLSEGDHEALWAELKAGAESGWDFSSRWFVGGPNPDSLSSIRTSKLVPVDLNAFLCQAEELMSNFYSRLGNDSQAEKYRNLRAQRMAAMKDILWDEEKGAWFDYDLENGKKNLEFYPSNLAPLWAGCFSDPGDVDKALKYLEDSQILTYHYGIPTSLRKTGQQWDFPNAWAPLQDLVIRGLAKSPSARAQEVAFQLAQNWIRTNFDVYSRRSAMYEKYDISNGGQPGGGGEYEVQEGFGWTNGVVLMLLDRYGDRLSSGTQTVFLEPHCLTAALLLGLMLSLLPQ
Description: Trehalase assay (colorimetric determination of D-glucose liberated from trehalose). In kind it is biochemical. Here is the method: The trehalase assay is based on the colorimetric determination of D-glucose, which is liberated from trehalose by the action of trehalase.
Before the assay was started, trehalase (Sigma No. T 8778) was diluted with 20 mM phosphate buffer pH 6.5 in a ratio of 1 1000. Trehalose was dissolved in a concentration of 0.lM in 0.lM 2-(n-morpholino)ethanesulfonic acid.
At the beginning of the assay, 100 μl each of H2 O, trehalose and trehalase were combined and the mixture was incubated at 37° C. for 30 minutes. The reaction was stopped by heating the batch to 100° C. The control batch was stopped immediately (0 minutes) by boiling. Where appropriate, salbostatin was added to the reaction batches in various concentrations in place of water.
The glucose which was liberated from the trehalose was determined colorimetrically. To this end, the glucose was reacted by glucose oxidase and the H2 O2 which formed was used for oxidizing o-dianisidine.The oxidized odianisidine was determined using a photometer. All the abovementioned reagents for glucose determination came from the glucose kit manufactured by Sigma (Sigma Chemie GmbH, Deisenhofen, Germany; No. 510-DA), and the assay was carried out in accordance with the enclosed protocol.

In the case of `OCC1=C[C@H](N[C@H]2CO[C@H](CO)[C@@H](O)[C@@H]2O)[C@H](O)[C@@H](O)[C@@H]1O` [salbostatin], the pKi (in general, the Ki on a negative log10 scale, so that one unit is a factor of ten) (competitive with regard to trehalose, read-out: inhibitor constant Ki) was 6.74. In addition, the pIC50 (substrate trehalose, 37° C., 30 minutes, read-out: salbostatin concentration showing an enzyme inhibition of 50%) is 7.00 to 8.00. For the same molecule, for the setting “with regard to trehalose”, the “type of inhibition (enzyme kinetics)” value was “competitive trehalase inhibitor”.

The record behind these values is patent US5091524A, “Glycosidase inhibitor salbostatin, process for its preparation, and its use” (Hoechst Aktiengesellschaft, priority 1988, dated 1992).
